Experimental data taken from patent US11331299B2, “Medicinal use of serrulatane diterpenes” (The University of Sydney, priority 2016, dated 2022).

Columns and labels:
PCAF (h) bromodomain = target: T1, PCAF (h) bromodomain (Homo sapiens, UniProt Q92831); assay: Epigenetic binding assay, Bromodomain; details: 10 μM; read-out: % Inhibition of Control Specific Binding
T1 construct: Bromodomain
T1 sequence (Q92831 723-827 limits assumed): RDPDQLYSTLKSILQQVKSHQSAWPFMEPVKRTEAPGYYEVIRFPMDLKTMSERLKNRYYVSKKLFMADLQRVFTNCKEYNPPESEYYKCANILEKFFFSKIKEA

CBX7 (h) chromodomain = target: T2, CBX7 (h) chromodomain (Homo sapiens, UniProt O95931); assay: Epigenetic binding assay, Chromodomain; details: read-out: % Inhibition of Control Specific Binding
T2 construct: Recognition and specificity determinants of the human cbx chromodomains; Eurofins CEREP (France), contract laboratory
T2 sequence (O95931 11-69 limits assumed): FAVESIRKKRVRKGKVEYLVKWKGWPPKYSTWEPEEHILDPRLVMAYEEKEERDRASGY

SP140 (h) PHD domain = target: T3, SP140 (h) PHD domain (Homo sapiens, UniProt Q13342); assay: Epigenetic binding assay, PHD domain; details: for inhibition at 10 µM: read-out: % Inhibition of Control Specific Binding
T3 construct: Eurofins CEREP (France), contract laboratory
T3 sequence (Q13342 690-736 limits assumed): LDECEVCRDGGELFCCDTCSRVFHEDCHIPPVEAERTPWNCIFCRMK

HDAC3 (h) = HDAC3 (h) (Homo sapiens, UniProt O15379); assay: Epigenetic enzyme assay, Histone deacetylase (HDACs); type: biochemical; details: read-out: % Inhibition of Control Values
Sequence of HDAC3 (h) (O15379 whole entry): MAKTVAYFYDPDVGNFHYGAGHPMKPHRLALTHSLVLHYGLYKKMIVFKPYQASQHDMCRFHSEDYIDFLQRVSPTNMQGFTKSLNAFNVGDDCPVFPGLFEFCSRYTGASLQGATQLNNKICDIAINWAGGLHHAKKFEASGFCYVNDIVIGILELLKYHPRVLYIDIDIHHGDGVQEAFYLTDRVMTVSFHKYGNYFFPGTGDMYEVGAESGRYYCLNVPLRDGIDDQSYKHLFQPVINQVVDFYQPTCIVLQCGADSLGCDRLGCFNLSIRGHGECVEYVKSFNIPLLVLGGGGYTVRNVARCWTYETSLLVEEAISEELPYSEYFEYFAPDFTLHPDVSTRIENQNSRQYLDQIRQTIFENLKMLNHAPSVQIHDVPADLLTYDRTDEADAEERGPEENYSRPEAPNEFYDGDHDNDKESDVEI
Sequence of HDAC3 (h) (Q9Y618 395-489 partner limits assumed): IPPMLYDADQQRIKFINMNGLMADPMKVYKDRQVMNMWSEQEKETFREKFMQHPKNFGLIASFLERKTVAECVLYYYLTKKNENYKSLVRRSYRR

Sirtuin 7 (h) = target: T4, Sirtuin 7 (h) (Homo sapiens, UniProt Q9NRC8); assay: Epigenetic enzyme assay, Sirtuins; type: biochemical; details: 10 μM; read-out: % Inhibition of Control Values
T4 sequence (Q9NRC8 1-400): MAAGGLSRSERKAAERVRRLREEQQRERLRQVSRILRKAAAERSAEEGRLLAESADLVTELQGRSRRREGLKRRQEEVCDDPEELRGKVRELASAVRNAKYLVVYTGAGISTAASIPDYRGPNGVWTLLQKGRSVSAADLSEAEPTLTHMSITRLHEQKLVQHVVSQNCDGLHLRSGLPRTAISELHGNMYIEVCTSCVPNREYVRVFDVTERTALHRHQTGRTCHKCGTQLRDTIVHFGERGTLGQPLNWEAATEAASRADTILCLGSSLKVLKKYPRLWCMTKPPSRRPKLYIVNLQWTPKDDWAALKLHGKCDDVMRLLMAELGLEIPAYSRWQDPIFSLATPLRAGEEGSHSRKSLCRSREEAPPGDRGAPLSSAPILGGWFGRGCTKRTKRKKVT

PRMT8 (h) = PRMT8 (h) (Homo sapiens, UniProt Q9NR22); assay: Epigenetic enzyme assay, Methyltransferases (MTs); type: biochemical; details: read-out: % Inhibition of Control Values
Sequence of PRMT8 (h) (Q9NR22 whole entry): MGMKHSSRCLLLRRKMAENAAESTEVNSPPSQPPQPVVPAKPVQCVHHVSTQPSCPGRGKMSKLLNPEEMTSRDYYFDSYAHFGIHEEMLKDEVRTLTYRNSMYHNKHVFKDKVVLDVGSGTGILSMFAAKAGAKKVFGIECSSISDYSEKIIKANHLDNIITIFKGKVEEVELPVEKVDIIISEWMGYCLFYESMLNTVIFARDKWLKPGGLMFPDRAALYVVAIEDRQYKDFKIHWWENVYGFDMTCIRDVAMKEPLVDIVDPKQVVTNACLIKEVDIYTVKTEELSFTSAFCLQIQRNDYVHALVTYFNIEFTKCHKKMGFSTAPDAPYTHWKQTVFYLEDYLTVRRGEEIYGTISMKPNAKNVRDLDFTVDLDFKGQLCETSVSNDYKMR

USP 16 (h) = USP 16 (h) (Homo sapiens, UniProt Q9Y5T5); assay: Epigenetic enzyme assay, Ubiquitin modifying enzymes; type: biochemical; details: 10 μM; read-out: % Inhibition of Control Values
Sequence of USP 16 (h) (Q9Y5T5 whole entry): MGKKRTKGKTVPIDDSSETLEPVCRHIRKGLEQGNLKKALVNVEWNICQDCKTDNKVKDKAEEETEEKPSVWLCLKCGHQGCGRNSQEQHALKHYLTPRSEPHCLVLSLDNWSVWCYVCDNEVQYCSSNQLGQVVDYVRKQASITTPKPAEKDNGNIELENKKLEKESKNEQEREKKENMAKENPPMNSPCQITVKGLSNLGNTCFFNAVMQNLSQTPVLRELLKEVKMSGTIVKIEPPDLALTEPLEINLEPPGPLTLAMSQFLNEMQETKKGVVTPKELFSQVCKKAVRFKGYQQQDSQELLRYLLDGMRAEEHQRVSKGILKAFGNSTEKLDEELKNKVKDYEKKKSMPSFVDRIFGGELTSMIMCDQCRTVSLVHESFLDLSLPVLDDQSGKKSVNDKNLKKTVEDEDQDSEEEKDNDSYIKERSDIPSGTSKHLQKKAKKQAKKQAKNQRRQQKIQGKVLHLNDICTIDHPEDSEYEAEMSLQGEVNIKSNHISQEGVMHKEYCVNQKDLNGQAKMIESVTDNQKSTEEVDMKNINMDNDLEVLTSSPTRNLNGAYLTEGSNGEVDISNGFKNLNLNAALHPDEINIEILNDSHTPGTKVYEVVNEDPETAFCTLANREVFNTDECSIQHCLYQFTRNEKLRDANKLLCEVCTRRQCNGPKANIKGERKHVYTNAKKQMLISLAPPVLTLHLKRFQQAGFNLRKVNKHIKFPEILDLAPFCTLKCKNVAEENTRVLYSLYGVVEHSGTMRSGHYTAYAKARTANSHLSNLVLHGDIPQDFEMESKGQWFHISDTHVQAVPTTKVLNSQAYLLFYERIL

USP 7 (h) = USP 7 (h) (Homo sapiens, UniProt Q93009); assay: as above; type: biochemical; details: 10 μM; read-out: % Inhibition of Control Values
Sequence of USP 7 (h) (Q93009 whole entry): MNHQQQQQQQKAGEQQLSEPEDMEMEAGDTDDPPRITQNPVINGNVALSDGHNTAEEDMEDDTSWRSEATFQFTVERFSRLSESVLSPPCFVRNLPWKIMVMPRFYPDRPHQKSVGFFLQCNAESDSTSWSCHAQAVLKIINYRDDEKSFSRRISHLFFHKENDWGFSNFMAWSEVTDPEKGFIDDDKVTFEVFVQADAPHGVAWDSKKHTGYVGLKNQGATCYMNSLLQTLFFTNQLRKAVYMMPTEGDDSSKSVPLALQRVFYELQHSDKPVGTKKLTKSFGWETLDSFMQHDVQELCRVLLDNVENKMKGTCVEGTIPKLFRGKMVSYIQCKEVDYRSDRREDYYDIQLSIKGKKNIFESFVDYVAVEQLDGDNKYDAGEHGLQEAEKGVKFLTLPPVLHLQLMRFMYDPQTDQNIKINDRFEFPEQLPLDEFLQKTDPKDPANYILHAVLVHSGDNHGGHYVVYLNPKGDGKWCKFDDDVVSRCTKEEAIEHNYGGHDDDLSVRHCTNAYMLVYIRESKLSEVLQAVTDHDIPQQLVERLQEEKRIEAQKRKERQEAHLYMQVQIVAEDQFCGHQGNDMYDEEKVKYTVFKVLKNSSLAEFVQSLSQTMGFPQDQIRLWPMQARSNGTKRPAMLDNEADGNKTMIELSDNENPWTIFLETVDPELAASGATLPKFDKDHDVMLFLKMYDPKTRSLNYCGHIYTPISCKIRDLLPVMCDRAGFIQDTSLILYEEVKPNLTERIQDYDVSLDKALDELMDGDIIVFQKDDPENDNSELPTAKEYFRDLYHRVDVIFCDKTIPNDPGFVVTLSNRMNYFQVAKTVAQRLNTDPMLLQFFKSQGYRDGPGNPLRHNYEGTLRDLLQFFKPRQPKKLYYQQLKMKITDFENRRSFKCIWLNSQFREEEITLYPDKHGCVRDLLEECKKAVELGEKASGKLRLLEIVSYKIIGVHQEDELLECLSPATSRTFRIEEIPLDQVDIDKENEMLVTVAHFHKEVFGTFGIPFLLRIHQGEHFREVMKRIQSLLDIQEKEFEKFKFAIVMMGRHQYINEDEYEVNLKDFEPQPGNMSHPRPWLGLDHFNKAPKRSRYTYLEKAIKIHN

[1] = system: Catechol-O-Methyl Transferase (COMT); assay: Catechol-O-Methyl Transferase (COMT); type: biochemical, Porcine; details: 10 μM; assay year 2015
Experimental: The in vitro pharmacological studies were conducted by Eurofins PanLab (Taiwan) using the parameters shown in Table 13 with respect to appropriate literature references.

639-V = assay: OncoPanel cell proliferation assay (10-day); type: cell-based, human; details: for EC50 / GI50 / IC50: Homo sapiens, Bladder; for EC50: read-out: Cell Count EC50; for GI50: read-out: Cell Count GI50; for IC50: read-out: Cell Count IC50
Hs 852.T = assay: OncoPanel cell proliferation assay (10-day); type: cell-based, human; details: for EC50 / GI50 / IC50: Homo sapiens, Skin (Melanoma); for EC50: read-out: Cell Count EC50; for GI50: read-out: Cell Count GI50; for IC50: read-out: Cell Count IC50
CYP2D6 = CYP2D6 (Homo sapiens, UniProt P10635); assay: in vitro; details: human liver microsomes, probe dextromethorphan
Sequence of CYP2D6 (P10635 whole entry): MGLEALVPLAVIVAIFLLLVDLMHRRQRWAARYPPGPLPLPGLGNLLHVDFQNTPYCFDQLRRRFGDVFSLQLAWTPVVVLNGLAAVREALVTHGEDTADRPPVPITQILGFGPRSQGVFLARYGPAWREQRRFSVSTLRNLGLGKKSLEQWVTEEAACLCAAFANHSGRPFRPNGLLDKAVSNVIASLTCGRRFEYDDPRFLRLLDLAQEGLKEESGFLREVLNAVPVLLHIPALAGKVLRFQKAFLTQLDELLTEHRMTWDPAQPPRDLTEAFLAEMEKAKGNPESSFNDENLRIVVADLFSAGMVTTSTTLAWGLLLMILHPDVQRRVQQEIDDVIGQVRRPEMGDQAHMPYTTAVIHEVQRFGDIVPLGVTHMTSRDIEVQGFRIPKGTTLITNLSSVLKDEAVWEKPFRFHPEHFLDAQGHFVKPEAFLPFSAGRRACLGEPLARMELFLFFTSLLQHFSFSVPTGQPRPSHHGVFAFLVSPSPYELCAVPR

**Q.** Which results are given for `CC(C)=CCC[C@H](CO)[C@@H]1CC[C@@H](C)c2c1cc(C)c(O)c2O` [Compound 1, 7,8,18-trihydroxyserrulat-14-ene]?
**A.** inhibition at 10 µM (PCAF (h) bromodomain): 37%; inhibition at 10 µM (CBX7 (h) chromodomain): 25%; % Inhibition of Control Specific Binding (SP140 (h) PHD domain; 10 μM): good inhibitory activity; inhibition at 10 µM (SP140 (h) PHD domain; 10 μM): 74%; IC50 (SP140 (h) PHD domain; Table 9, inhibition/concentration-response curve): 4.6 µM; inhibition at 10 µM (HDAC3 (h)): 1%; inhibition at 10 µM (Sirtuin 7 (h)): 7%; inhibition at 10 µM (PRMT8 (h)): 5%; inhibition at 10 µM (USP 16 (h)): 11%; inhibition at 10 µM (USP 7 (h)): -18%; % Control Response [1]: 0%; Relative cell count (%) Mean (639-V; 3.00E+00 microM): 15.8%; Relative cell count (%) Mean (639-V; 3.00E+01 microM): 0.0%; Relative cell count (%) Mean (639-V; 3.01E−01 microM): 92.6%; Relative cell count (%) Mean (639-V; 3.01E−02 microM): 103.6%; Relative cell count (%) Mean (639-V; 3.02E−03 microM): 96.1%; Relative cell count (%) Mean (639-V; 9.49E+00 microM): 0.3%; Relative cell count (%) Mean (639-V; 9.51E−01 microM): 91.9%; Relative cell count (%) Mean (639-V; 9.52E−02 microM): 91.6%; Relative cell count (%) Mean (639-V; 9.53E−03 microM): 101.2%; Relative cell count (%) Mean (639-V; 9.55E−04 microM): 92.0%; EC50 (639-V): 2.01 µM; GI50 (639-V): 2.01 µM; IC50 (639-V): 2.01 µM; Relative cell count (%) Mean (Hs 852.T; 3.00E+00 microM): 41.6%; Relative cell count (%) Mean (Hs 852.T; 3.00E+01 microM): 2.7%; Relative cell count (%) Mean (Hs 852.T; 3.01E−01 microM): 95.3%; Relative cell count (%) Mean (Hs 852.T; 3.01E−02 microM): 94.5%; Relative cell count (%) Mean (Hs 852.T; 3.02E−03 microM): 104.5%; Relative cell count (%) Mean (Hs 852.T; 9.49E+00 microM): 13.1%; Relative cell count (%) Mean (Hs 852.T; 9.51E−01 microM): 85.5%; Relative cell count (%) Mean (Hs 852.T; 9.52E−02 microM): 92.2%; Relative cell count (%) Mean (Hs 852.T; 9.53E−03 microM): 100.2%; Relative cell count (%) Mean (Hs 852.T; 9.55E−04 microM): 104.3%; EC50 (Hs 852.T): 2.49 µM; GI50 (Hs 852.T): 2.42 µM; IC50 (Hs 852.T): 2.56 µM; inhibition at 1 µM (CYP2D6): 12 to 21%; inhibition at 10 µM (CYP2D6): 45%

**Q.** How did the inhibition at 10 µM (PCAF (h) bromodomain) turn out when `CC(C)=CCC[C@@H]1C(O)Oc2c(C)cc(O)c3c2[C@H]1CC[C@H]3C` (stereo partly shown) [Compound 2, 5,18-epoxyserrulat-14-en-8,18-diol] was run?
**A.** The inhibition at 10 µM was 16%.

**Q.** And the inhibition at 10 µM (CBX7 (h) chromodomain)?
**A.** The inhibition at 10 µM was 33%.

**Q.** And the inhibition at 10 µM (SP140 (h) PHD domain; 10 μM)?
**A.** The inhibition at 10 µM was 0%.

**Q.** What about the inhibition at 10 µM (HDAC3 (h)) of the same compound?
**A.** The inhibition at 10 µM was 1%.

**Q.** And the inhibition at 10 µM (Sirtuin 7 (h))?
**A.** The inhibition at 10 µM was -2%.

**Q.** What about the inhibition at 10 µM (PRMT8 (h)) of the same compound?
**A.** The inhibition at 10 µM was 24%.

**Q.** And the inhibition at 10 µM (USP 16 (h))?
**A.** Its inhibition at 10 µM is 14%.

**Q.** And the inhibition at 10 µM (USP 7 (h))?
**A.** The inhibition at 10 µM was -14%.

**Q.** What about the “% Control Response” value [1] of the same compound?
**A.** The value was −1%.

**Q.** And the EC50 (639-V)?
**A.** Its EC50 is 6.54 µM.

**Q.** And the GI50 (639-V)?
**A.** Its GI50 is 7.98 µM.

**Q.** What about the IC50 (639-V) of the same compound?
**A.** The IC50 was 8 µM.

**Q.** And the EC50 (Hs 852.T)?
**A.** Its EC50 is 15.4 µM.

**Q.** What about the GI50 (Hs 852.T) of the same compound?
**A.** Its GI50 is 14.7 µM.

**Q.** What about the IC50 (Hs 852.T) of the same compound?
**A.** Its IC50 is 15.4 µM.

**Q.** What about the inhibition at 1 µM (CYP2D6) of the same compound?
**A.** Its inhibition at 1 µM is 12 to 21%.

**Q.** What about the inhibition at 10 µM (CYP2D6) of the same compound?
**A.** The inhibition at 10 µM was 44%.

**Q.** Which inhibition at 10 µM (PCAF (h) bromodomain) does the source give for `CC(C)=CCC[C@@H]1COc2c(C)cc(O)c3c2[C@H]1CC[C@H]3C` [Compound 3, 5,18-epoxy-8-hydroxyserrulat-14-ene] here?
**A.** Its inhibition at 10 µM is 3%.

**Q.** What about the inhibition at 10 µM (CBX7 (h) chromodomain) of the same compound?
**A.** The inhibition at 10 µM was 43%.

**Q.** And the inhibition at 10 µM (SP140 (h) PHD domain; 10 μM)?
**A.** Its inhibition at 10 µM is 2%.

**Q.** What about the inhibition at 10 µM (HDAC3 (h)) of the same compound?
**A.** The inhibition at 10 µM was 3%.

**Q.** What about the inhibition at 10 µM (Sirtuin 7 (h)) of the same compound?
**A.** Its inhibition at 10 µM is -8%.

**Q.** What about the inhibition at 10 µM (PRMT8 (h)) of the same compound?
**A.** Its inhibition at 10 µM is -26%.

**Q.** And the inhibition at 10 µM (USP 16 (h))?
**A.** Its inhibition at 10 µM is 12%.

**Q.** What about the inhibition at 10 µM (USP 7 (h)) of the same compound?
**A.** Its inhibition at 10 µM is 9%.

**Q.** What about the “% Control Response” value [1] of the same compound?
**A.** The value was 3%.

**Q.** How did the EC50 (639-V) turn out when `CC(C)=CCC[C@H](C)[C@@H]1CC[C@@H](C)c2c1cc(C)c(O)c2O` [Compound 4, 7,8-dihydroxyserrulat-14-ene] was run?
**A.** Its EC50 is 12 µM.

**Q.** What about the GI50 (639-V) of the same compound?
**A.** Its GI50 is 12 µM.

**Q.** What about the IC50 (639-V) of the same compound?
**A.** The IC50 was 12 µM.

**Q.** And the EC50 (Hs 852.T)?
**A.** Its EC50 is 12 µM.

**Q.** And the GI50 (Hs 852.T)?
**A.** The GI50 was 11.6 µM.

**Q.** What about the IC50 (Hs 852.T) of the same compound?
**A.** The IC50 was 12 µM.

**Q.** What about the inhibition at 1 µM (CYP2D6) of the same compound?
**A.** Its inhibition at 1 µM is 12 to 21%.

**Q.** What about the inhibition at 10 µM (CYP2D6) of the same compound?
**A.** Its inhibition at 10 µM is 45%.
